Laboratory results: US20110280940A1, “Di-Vanilloyl And Tri-Vanilloyl Derivatives For Use In Anti-Cancer Therapy” (priority 2008, published 2011)

Legend:
pfGSK3 = pfGSK3 (Plasmodium falciparum, UniProt O77344); assay: Kinase activity assay, pfGSK3; format: biochemical; details: 10 μM, 1% DMSO, 15 μM ATP; residual activity
Protocol: (§1) Buffer A: 10 mM MgCl2, 1 mM EGTA, 1 mM DTT, 25 mM Tris-HCl pH 7.5, 50 μg heparin/ml. Buffer C: 60 mM β-glycerophosphate, 15 mM p-nitrophenylphosphate, 25 mM Mops (pH 7.2), 5 mM EGTA, 15 mM MgCl2, 1 mM DTT, 1 mM sodium vanadate, 1 mM phenyl phosphate.
(§2) Kinase activities were assayed in Buffer A or C, at 30° C., at a final ATP concentration of 15 μM. Blank values were subtracted and activities expressed in % of the maximal activity, i.e. in the absence of inhibitors. Controls were performed with appropriate dilutions of DMSO.

DYRK1A = DYRK1A (Rattus norvegicus, UniProt Q63470); assay: Kinase activity assay, DYRK1A (GST fusion, myelin basic protein substrate); format: biochemical
Protocol: as §1, §2
DYRK1A (rat, recombinant, expressed in E. coli as a GST fusion protein) was purified by affinity chromatography on glutathione-agarose and assayed as described for CDK1/cyclin B using myelin basic protein (1 mg/ml) as a substrate.

WI38 normal fibroblasts = assay: Cellular imaging (quantitative videomicroscopy), global growth ratio, WI38; format: cell-based, human; details: 50 μM, 72 h
Source text: As the MTT test is based on the mitochondria functions, we also investigated the effects of the di- and tri-vanilloyl derivatives according to the invention on cell proliferation, migration and morphology by means of a cellular imaging approach (Debeir et al., Cytometry 60:29-40, 2004; Debeir et al., IEEE Trans Med Imaging 24:697-711, 2005) either in the human U373-MG glioma cell line, which is apoptosis-resistant but autophagy-sensitive (Lefranc F et al., Neurosurgery 2008) and in the human A549 non-small-cell-lung cancer cell line, which is apoptosis-resistant and autophagy-resistant (Mijatovic T et al., Neoplasia 2006, May; 8(5):402-12).
Investigations have also been performed in human normal fibroblasts (WS1 and WI38—see Tables 4 and 5). Cellular imaging relied on the use of computer-assisted phase-contrast microscopy making possible to film the behaviour of living cells in culture dishes for several days. […]
The behaviour of the cells, in terms of morphology, growth and death were thus investigated. The effect on the overall growth was measured by counting the number of cells on the first (0 h) and the last image (72 h) of each film. […] The ratio GGRtreated cells/GGRcontrol cells, was further calculated thereby obtaining a value that describes the effect of compounds of the present invention on the overall cell growth. […]

[1] = system: PC-3 prostate cancer cells; assay: MTT colorimetric assay, overall cell growth, PC-3; format: cell-based, human; details: Homo sapiens, 72 hours of incubation, read-out: In Vitro IC50 Growth Inhibitory Values, PC-3
In short: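 Cells were seeded, left 24 h at 37 °C, then exposed to compound at molar concentrations from 10^-8 to 10^-4 M for 72 h at 37 °C, in sestuplicate. Mean OD gave % living cells versus untreated control.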

Chain of pfGSK3 (O77344 1-440): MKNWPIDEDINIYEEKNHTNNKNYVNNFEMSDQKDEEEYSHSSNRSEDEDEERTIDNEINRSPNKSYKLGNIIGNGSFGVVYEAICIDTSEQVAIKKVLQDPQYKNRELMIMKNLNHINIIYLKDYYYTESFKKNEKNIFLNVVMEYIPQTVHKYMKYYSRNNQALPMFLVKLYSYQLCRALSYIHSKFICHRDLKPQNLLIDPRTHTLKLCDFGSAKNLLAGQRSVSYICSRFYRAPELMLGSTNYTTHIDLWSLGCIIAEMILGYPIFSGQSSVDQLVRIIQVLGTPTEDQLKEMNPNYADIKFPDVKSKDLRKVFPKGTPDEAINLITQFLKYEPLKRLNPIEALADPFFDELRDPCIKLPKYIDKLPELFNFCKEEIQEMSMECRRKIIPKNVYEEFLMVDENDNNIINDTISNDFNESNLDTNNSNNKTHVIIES

| IC50 [1] [mM] | SMILES | % ENZYMATIC ACTIVITY, pfGSK3 (pfGSK3) [%] | inhibition at 10 µM (DYRK1A) [%] | % ENZYMATIC ACTIVITY, Dyrk1A (DYRK1A; 10 μM, 1% DMSO, 15 μM ATP, residual activity) [%] | Global Grow Ratio Treated/Ct (GGR T/Ct) determined by Video Quantitative microscopy, WI38 (WI38 normal fibroblasts) |
| --- | --- | --- | --- | --- | --- |
| – | COc1cc(C(=O)OCCOC(=O)c2ccc(O)c(OC)c2)ccc1O [DLT1, Ethane-1,2-diyl bis-(4-hydroxy-3-methoxybenzoate)] | 92 | 51 | 49 | 0.8 |
| > 1 | COc1cc(C(=O)O)ccc1O [vanillic acid, reference compound] | – | – | – | – |
